Laboratory results reported in PMC9954146, “Anti-Leukaemic Activity of Rilpivirine Is Mediated by Aurora A Kinase Inhibition” (Cancers, 2023).

Assays:
Test in all cases: Kinase panel
Format in all cases: biochemical
Settings in all cases: read-out: % Residual Activity
Wee1B(h) = molecular target: T1, Wee1B(h) (Homo sapiens, UniProt P0C1S8)
T1 construct: purchased Eurofins (KinaseProfiler)
Outline: (§1)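 Selectivity panel (kinome-wide), rilpivirine as test compound. Readout: radiolabel incorporation. ATP = Km of the respective kinase. Ki calculated from IC50 (Cheng–Prusoff).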

HIPK2(h) = molecular target: T2, HIPK2(h) (Homo sapiens, UniProt Q9H2X6)
T2 construct: purchased Eurofins (KinaseProfiler)
Outline: as §1

CDK16/cyclinY(h) = molecular target: T3, CDK16/cyclinY(h) (Homo sapiens, UniProt Q00536)
T3 construct: purchased Eurofins (KinaseProfiler)
Outline: as §1

PKCι(h) = molecular target: T4, PKCι(h) (Homo sapiens, UniProt P41743)
T4 construct: purchased Eurofins (KinaseProfiler)
T4 sequence (P41743 whole entry): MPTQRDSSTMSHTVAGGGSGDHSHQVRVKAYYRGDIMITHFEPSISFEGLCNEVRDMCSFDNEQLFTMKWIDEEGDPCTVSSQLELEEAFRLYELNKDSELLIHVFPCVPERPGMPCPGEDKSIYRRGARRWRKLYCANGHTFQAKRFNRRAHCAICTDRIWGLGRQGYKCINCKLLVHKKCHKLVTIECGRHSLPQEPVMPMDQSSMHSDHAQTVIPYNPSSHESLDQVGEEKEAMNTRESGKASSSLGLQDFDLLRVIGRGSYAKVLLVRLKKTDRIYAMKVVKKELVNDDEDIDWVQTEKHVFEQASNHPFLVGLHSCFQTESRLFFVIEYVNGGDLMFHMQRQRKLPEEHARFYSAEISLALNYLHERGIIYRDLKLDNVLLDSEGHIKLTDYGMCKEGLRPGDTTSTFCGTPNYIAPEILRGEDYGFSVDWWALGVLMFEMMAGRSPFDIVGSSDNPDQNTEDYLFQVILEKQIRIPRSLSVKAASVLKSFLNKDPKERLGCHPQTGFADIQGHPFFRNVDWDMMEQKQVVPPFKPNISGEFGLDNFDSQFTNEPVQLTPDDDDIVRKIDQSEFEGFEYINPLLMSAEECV
Outline: as §1

CDK4/cyclinD3(h) = molecular target: T5, CDK4/cyclinD3(h) (Homo sapiens, UniProt P11802)
T5 construct: purchased Eurofins (KinaseProfiler)
T5 sequence (P11802 whole entry): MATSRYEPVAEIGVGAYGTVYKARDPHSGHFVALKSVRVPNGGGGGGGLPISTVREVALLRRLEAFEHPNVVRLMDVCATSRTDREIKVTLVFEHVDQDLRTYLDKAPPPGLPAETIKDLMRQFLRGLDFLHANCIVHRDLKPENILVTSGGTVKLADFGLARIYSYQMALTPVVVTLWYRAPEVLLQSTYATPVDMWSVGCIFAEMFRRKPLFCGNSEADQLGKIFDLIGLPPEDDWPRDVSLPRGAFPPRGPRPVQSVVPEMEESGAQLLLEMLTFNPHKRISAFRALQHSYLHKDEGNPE
T5 sequence (P30281 whole entry partner): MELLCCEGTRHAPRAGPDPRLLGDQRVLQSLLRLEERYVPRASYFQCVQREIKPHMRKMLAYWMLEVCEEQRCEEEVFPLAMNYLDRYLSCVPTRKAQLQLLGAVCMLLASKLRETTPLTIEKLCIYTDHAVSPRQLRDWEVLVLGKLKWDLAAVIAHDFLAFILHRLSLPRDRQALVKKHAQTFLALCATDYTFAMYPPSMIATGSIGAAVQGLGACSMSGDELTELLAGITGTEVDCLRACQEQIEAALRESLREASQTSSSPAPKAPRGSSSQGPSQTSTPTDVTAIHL
Outline: as §1

LIMK1(h) = molecular target: T6, LIMK1(h) (Homo sapiens, UniProt P53667)
T6 construct: purchased Eurofins (KinaseProfiler)
T6 sequence (P53667 whole entry): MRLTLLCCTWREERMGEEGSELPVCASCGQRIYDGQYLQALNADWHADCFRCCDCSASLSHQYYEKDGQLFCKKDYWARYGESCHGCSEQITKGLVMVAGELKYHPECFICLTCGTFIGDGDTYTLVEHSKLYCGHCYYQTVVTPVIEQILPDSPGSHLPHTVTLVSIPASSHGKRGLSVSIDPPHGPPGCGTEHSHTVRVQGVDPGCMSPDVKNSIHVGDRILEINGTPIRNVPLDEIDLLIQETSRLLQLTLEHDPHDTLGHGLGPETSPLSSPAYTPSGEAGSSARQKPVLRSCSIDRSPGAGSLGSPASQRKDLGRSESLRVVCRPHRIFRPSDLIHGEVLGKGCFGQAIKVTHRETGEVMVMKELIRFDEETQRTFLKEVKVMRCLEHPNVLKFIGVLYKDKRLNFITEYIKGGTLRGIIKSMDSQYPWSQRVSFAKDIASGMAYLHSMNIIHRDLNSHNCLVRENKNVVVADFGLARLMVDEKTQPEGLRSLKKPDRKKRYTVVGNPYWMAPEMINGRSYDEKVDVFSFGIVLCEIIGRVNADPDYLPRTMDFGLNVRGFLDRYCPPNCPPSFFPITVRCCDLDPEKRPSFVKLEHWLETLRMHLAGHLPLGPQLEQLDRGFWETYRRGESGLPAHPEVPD
Outline: as §1

NEK9(h) = molecular target: T7, NEK9(h) (Homo sapiens, UniProt Q8TD19)
T7 construct: purchased Eurofins (KinaseProfiler)
Outline: as §1

ZAK(h) = molecular target: T8, ZAK(h) (Homo sapiens, UniProt Q9NYL2)
T8 construct: purchased Eurofins (KinaseProfiler)
Outline: as §1

mTOR/FKBP12(h) = molecular target: T9, mTOR/FKBP12(h) (Homo sapiens, UniProt P42345)
T9 construct: purchased Eurofins (KinaseProfiler)
Outline: as §1

AMPKα2(h) = molecular target: T10, AMPKα2(h) (Homo sapiens, UniProt P54646)
T10 construct: purchased Eurofins (KinaseProfiler)
Outline: as §1

Abl (M351T)(h) = molecular target: T11, Abl (M351T)(h) (Homo sapiens, UniProt P00519, M351T)
T11 construct: purchased Eurofins (KinaseProfiler)
Outline: as §1

SRPK2(h) = molecular target: T12, SRPK2(h) (Homo sapiens, UniProt P78362)
T12 construct: purchased Eurofins (KinaseProfiler)
T12 sequence (P78362 whole entry): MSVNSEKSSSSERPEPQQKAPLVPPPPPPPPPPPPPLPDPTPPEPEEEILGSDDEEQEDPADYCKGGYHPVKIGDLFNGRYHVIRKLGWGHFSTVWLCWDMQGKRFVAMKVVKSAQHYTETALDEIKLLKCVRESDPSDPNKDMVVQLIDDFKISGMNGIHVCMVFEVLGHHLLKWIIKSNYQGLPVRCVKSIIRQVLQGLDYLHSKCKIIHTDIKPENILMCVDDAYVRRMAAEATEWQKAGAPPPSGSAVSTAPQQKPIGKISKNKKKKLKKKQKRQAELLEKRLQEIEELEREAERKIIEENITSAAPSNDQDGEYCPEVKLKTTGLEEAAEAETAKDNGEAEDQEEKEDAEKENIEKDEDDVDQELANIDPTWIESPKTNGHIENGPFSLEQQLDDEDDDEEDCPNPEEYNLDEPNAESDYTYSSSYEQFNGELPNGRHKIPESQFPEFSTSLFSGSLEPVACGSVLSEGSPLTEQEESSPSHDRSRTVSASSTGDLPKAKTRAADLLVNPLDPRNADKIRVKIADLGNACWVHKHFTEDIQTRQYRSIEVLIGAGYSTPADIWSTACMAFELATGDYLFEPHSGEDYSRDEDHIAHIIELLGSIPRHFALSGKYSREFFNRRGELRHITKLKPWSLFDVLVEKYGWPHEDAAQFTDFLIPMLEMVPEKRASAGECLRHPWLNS
Outline: as §1

DDR1(h) = molecular target: T13, DDR1(h) (Homo sapiens, UniProt Q08345)
T13 construct: purchased Eurofins (KinaseProfiler)
T13 sequence (Q08345 19-913): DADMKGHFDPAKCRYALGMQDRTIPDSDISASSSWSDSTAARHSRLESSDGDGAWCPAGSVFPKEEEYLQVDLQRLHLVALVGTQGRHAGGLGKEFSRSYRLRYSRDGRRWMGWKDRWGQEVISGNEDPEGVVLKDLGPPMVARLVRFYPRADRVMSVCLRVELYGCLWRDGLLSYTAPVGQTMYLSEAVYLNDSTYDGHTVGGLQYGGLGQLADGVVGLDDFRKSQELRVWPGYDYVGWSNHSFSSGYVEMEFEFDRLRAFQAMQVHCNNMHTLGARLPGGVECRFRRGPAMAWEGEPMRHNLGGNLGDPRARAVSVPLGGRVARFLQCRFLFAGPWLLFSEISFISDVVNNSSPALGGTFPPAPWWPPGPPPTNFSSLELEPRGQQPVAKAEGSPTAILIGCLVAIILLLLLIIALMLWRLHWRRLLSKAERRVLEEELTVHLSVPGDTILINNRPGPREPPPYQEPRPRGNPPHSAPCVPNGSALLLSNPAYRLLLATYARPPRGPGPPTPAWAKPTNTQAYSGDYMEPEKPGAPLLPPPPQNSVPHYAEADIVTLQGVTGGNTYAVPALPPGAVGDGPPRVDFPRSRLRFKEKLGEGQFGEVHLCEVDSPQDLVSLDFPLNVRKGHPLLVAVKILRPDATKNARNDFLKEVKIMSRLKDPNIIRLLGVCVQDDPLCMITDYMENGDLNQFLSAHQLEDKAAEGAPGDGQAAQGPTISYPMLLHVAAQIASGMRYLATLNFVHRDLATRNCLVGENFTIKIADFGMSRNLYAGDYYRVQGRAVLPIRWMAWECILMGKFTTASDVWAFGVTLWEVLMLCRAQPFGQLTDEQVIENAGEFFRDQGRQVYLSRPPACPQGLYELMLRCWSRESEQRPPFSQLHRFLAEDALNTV
Outline: as §1

MAPK2(m) = molecular target: T14, MAPK2(m) (Mus musculus, UniProt P63085)
T14 construct: purchased Eurofins (KinaseProfiler)
Outline: as §1

Lyn(m) = molecular target: T15, Lyn(m) (Mus musculus, UniProt P25911)
T15 construct: purchased Eurofins (KinaseProfiler)
Outline: as §1

CLK2(h) = molecular target: T16, CLK2(h) (Homo sapiens, UniProt P49760)
T16 construct: purchased Eurofins (KinaseProfiler)
Outline: as §1

CaMKIIδ(h) = molecular target: T17, CaMKIIδ(h) (Homo sapiens, UniProt Q13557)
T17 construct: purchased Eurofins (KinaseProfiler)
Outline: as §1

DCAMKL2(h) = molecular target: T18, DCAMKL2(h) (Homo sapiens, UniProt Q8N568)
T18 construct: purchased Eurofins (KinaseProfiler)
Outline: as §1

Src(T341M)(h) = molecular target: T19, Src(T341M)(h) (Homo sapiens, UniProt P12931, T341M)
T19 construct: purchased Eurofins (KinaseProfiler)
Outline: as §1

Tie2(Y897S)(h) = molecular target: T20, Tie2(Y897S)(h) (Homo sapiens, UniProt Q02763, Y897S)
T20 construct: purchased Eurofins (KinaseProfiler)
Outline: as §1

PKCζ(h) = molecular target: T21, PKCζ(h) (Homo sapiens, UniProt Q05513)
T21 construct: purchased Eurofins (KinaseProfiler)
Outline: as §1

MST1(h) = molecular target: T22, MST1(h) (Homo sapiens, UniProt Q13043)
T22 construct: purchased Eurofins (KinaseProfiler)
Outline: as §1

JAK3(h) = molecular target: T23, JAK3(h) (Homo sapiens, UniProt P52333)
T23 construct: purchased Eurofins (KinaseProfiler)
Outline: as §1

STK32A(h) = molecular target: T24, STK32A(h) (Homo sapiens, UniProt Q8WU08)
T24 construct: purchased Eurofins (KinaseProfiler)
Outline: as §1

TAO2(h) = molecular target: T25, TAO2(h) (Homo sapiens, UniProt Q9UL54)
T25 construct: purchased Eurofins (KinaseProfiler)
Outline: as §1

ATR/ATRIP(h) = molecular target: T26, ATR/ATRIP(h) (Homo sapiens, UniProt Q13535)
T26 construct: purchased Eurofins (KinaseProfiler)
Outline: as §1

DRAK2(h) = molecular target: T27, DRAK2(h) (Homo sapiens, UniProt O94768)
T27 construct: purchased Eurofins (KinaseProfiler)
Outline: as §1

TGFBR2(h) = molecular target: T28, TGFBR2(h) (Homo sapiens, UniProt P37173)
T28 construct: purchased Eurofins (KinaseProfiler)
Outline: as §1

PIP5K1g(h) = PIP5K1g(h) (Homo sapiens, UniProt O60331)
Outline: as §1

STK33(h) = molecular target: T29, STK33(h) (Homo sapiens, UniProt Q9BYT3)
T29 construct: purchased Eurofins (KinaseProfiler)
Outline: as §1

A-Raf(h) = molecular target: T30, A-Raf(h) (Homo sapiens, UniProt P10398)
T30 construct: purchased Eurofins (KinaseProfiler)
Outline: as §1

Txk(h) = molecular target: T31, Txk(h) (Homo sapiens, UniProt P42681)
T31 construct: purchased Eurofins (KinaseProfiler)
Outline: as §1

MEK2(h) = molecular target: T32, MEK2(h) (Homo sapiens, UniProt P36507)
T32 construct: purchased Eurofins (KinaseProfiler)
Outline: as §1

Abl(h) = molecular target: T33, Abl(h) (Homo sapiens, UniProt P00519)
T33 construct: purchased Eurofins (KinaseProfiler)
Outline: as §1

VRK2(h) = molecular target: T34, VRK2(h) (Homo sapiens, UniProt Q86Y07)
T34 construct: purchased Eurofins (KinaseProfiler)
Outline: as §1

NEK3(h) = molecular target: T35, NEK3(h) (Homo sapiens, UniProt P51956)
T35 construct: purchased Eurofins (KinaseProfiler)
Outline: as §1

Axl(h) = molecular target: T36, Axl(h) (Homo sapiens, UniProt P30530)
T36 construct: purchased Eurofins (KinaseProfiler)
Outline: as §1

c-RAF(h) = molecular target: T37, c-RAF(h) (Homo sapiens, UniProt P04049)
T37 construct: purchased Eurofins (KinaseProfiler)
Outline: as §1

GCN2(h) = molecular target: T38, GCN2(h) (Homo sapiens, UniProt Q9P2K8)
T38 construct: purchased Eurofins (KinaseProfiler)
T38 sequence (Q9P2K8 whole entry): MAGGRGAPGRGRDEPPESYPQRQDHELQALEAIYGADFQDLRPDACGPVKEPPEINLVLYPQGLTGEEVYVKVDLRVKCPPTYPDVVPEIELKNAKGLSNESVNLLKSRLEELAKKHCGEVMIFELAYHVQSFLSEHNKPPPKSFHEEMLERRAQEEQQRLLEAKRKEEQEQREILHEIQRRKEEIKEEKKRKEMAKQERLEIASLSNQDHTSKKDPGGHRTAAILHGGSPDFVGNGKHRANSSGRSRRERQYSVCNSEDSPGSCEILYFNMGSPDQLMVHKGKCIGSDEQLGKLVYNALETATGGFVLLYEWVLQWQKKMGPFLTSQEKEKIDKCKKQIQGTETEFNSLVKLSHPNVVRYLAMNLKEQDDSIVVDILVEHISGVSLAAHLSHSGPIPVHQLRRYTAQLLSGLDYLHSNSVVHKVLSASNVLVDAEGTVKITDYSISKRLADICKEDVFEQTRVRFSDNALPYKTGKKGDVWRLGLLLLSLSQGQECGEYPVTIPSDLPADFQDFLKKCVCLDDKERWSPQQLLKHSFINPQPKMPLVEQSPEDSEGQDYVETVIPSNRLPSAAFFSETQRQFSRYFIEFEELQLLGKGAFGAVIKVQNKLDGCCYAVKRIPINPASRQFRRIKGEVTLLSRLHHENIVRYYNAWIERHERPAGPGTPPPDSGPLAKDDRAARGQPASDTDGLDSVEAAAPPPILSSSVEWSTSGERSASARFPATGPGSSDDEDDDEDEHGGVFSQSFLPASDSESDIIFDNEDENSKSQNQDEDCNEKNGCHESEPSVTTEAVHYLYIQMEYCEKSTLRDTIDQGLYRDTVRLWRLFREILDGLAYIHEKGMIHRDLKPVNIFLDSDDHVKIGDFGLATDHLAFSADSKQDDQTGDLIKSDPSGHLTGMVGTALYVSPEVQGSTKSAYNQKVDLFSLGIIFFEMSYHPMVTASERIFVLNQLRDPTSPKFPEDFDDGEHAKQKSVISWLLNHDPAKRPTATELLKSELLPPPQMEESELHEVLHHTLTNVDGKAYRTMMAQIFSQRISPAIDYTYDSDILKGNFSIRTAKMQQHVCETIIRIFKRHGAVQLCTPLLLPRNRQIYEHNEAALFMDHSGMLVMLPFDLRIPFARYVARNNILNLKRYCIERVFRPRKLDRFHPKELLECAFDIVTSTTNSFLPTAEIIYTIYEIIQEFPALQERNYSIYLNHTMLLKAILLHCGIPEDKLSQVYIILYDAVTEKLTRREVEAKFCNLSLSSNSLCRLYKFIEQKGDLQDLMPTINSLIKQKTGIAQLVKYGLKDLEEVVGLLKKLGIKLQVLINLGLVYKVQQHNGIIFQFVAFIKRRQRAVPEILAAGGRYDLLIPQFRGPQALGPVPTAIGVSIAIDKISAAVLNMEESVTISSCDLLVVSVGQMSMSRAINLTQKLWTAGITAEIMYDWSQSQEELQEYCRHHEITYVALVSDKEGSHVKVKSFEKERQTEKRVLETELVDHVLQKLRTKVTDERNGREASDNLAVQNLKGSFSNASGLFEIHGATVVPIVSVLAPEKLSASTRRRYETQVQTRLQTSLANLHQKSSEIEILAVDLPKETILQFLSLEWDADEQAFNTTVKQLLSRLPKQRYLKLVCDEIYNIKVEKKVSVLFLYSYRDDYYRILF
Outline: as §1

Compound: Cc1cc(/C=C/C#N)cc(C)c1Nc1ccnc(Nc2ccc(C#N)cc2)n1 [rilpivirine, (E)-4-((4-((4-(2-cyanoethenyl)-2,6-dimethylphenyl)amino)pyrimidin-2-yl)amino)benzonitrile]
- remaining activity at 1 µM (Wee1B(h)): 94%
- remaining activity at 1 µM (HIPK2(h)): 85%
- remaining activity at 1 µM (CDK16/cyclinY(h)): 96%
- remaining activity at 1 µM (PKCι(h)): 99%
- remaining activity at 1 µM (CDK4/cyclinD3(h)): 101%
- remaining activity at 1 µM (LIMK1(h)): 47%
- remaining activity at 1 µM (NEK9(h)): 90%
- remaining activity at 1 µM (ZAK(h)): 99%
- remaining activity at 1 µM (mTOR/FKBP12(h)): 100%
- remaining activity at 1 µM (AMPKα2(h)): 48%
- remaining activity at 1 µM (Abl (M351T)(h)): 74%
- remaining activity at 1 µM (SRPK2(h)): 91%
- remaining activity at 1 µM (DDR1(h)): 46%
- remaining activity at 1 µM (MAPK2(m)): 92%
- remaining activity at 1 µM (Lyn(m)): 25%
- remaining activity at 1 µM (CLK2(h)): 60%
- remaining activity at 1 µM (CaMKIIδ(h)): 47%
- remaining activity at 1 µM (DCAMKL2(h)): 122%
- remaining activity at 1 µM (Src(T341M)(h)): 78%
- remaining activity at 1 µM (Tie2(Y897S)(h)): 96%
- remaining activity at 1 µM (PKCζ(h)): 80%
- remaining activity at 1 µM (MST1(h)): 84%
- remaining activity at 1 µM (JAK3(h)): 68%
- remaining activity at 1 µM (STK32A(h)): 89%
- remaining activity at 1 µM (TAO2(h)): 59%
- remaining activity at 1 µM (ATR/ATRIP(h)): 117%
- remaining activity at 1 µM (DRAK2(h)): 107%
- remaining activity at 1 µM (TGFBR2(h)): 94%
- remaining activity at 1 µM (PIP5K1g(h)): 76%
- remaining activity at 1 µM (STK33(h)): 102%
- remaining activity at 1 µM (A-Raf(h)): 101%
- remaining activity at 1 µM (Txk(h)): 79%
- remaining activity at 1 µM (MEK2(h)): 92%
- remaining activity at 1 µM (Abl(h)): 86%
- remaining activity at 1 µM (VRK2(h)): 88%
- remaining activity at 1 µM (NEK3(h)): 91%
- remaining activity at 1 µM (Axl(h)): 98%
- remaining activity at 1 µM (c-RAF(h)): 91%
- remaining activity at 1 µM (GCN2(h)): 93%
